Results reported in ChEMBL document CHEMBL1146710, “Discovery of a novel series of DHODH inhibitors by a docking procedure and QSAR refinement” (Bioorg Med Chem Lett, 2004).

Target: Dihydroorotate dehydrogenase (quinone), mitochondrial (Homo sapiens, UniProt Q02127)
Sequence (Q02127 whole entry): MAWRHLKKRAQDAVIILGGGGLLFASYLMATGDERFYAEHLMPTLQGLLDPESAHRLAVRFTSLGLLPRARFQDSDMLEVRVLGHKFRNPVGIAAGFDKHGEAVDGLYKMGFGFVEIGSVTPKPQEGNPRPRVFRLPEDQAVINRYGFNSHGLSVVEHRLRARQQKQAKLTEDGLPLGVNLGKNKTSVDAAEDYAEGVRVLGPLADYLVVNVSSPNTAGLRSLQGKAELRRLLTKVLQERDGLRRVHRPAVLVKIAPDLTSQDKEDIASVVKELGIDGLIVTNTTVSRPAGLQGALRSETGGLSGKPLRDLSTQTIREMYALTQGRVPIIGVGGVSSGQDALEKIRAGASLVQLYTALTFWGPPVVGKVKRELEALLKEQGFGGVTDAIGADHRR
Description: In vitro inhibitory activity against human dihydroorotate dehydrogenase (DHODH)

Structure (SMILES)	IC50 [nM]
CN(C)c1ccc(-c2ccc(NC(=O)C3=C(C(=O)O)CCC3)cc2Cl)cc1	50
O=C(O)C1=C(C(=O)Nc2ccc(-c3ccc(OC(F)(F)F)cc3)cc2F)CCC1	5700
N#Cc1cc(-c2cccc(OC(F)(F)F)c2)ccc1NC(=O)C1=C(C(=O)O)CCC1	370
COc1cccc(-c2ccc(NC(=O)C3=C(C(=O)O)CCC3)c(OC)c2)c1	170
O=C(O)C1=C(C(=O)Nc2ccc(-c3cccc(OC(F)(F)F)c3)cc2F)CCC1	280
O=C(O)C1=C(C(=O)Nc2c(F)cc(-c3ccccc3F)cc2F)CCC1	45
CN(C)c1ccc(-c2cc(F)c(NC(=O)C3=C(C(=O)O)CCC3)c(F)c2)cc1	610
O=C(O)C1=C(C(=O)Nc2c(F)c(F)c(-c3cccc(OC(F)(F)F)c3)c(F)c2F)CCC1	7
O=C(O)C1=C(C(=O)Nc2ccc(-c3ccc(Br)cc3)cc2Cl)CCC1	2900
O=C(O)C1=C(C(=O)Nc2ccc(-c3cccc(OC(F)(F)F)c3)cc2[N+](=O)[O-])CCC1	390
O=C(O)C1=C(C(=O)Nc2ccc(-c3cccc(OC(F)(F)F)c3)cc2Cl)CCC1	290
Cc1cc(-c2cccc(OC(F)(F)F)c2)ccc1NC(=O)C1=C(C(=O)O)CCC1	150
COc1cc(-c2ccccc2Cl)ccc1NC(=O)C1=C(C(=O)O)CCC1	225
O=C(O)C1=C(C(=O)Nc2ccc(-c3cccc(OC(F)(F)F)c3)cc2C(F)(F)F)CCC1	840
O=C(O)C1=C(C(=O)Nc2c(F)cc(-c3cccc(OC(F)(F)F)c3)cc2F)CCC1	33
CC(C)(C)c1ccc(-c2ccc(NC(=O)C3=C(C(=O)O)CCC3)cc2Cl)cc1	80
COc1ccccc1-c1ccc(NC(=O)C2=C(C(=O)O)CCC2)c(Cl)c1	310
O=C(O)C1=C(C(=O)Nc2c(F)cc(-c3ccccc3Cl)cc2F)CCC1	18
O=C(O)C1=C(C(=O)Nc2ccc(-c3ccc(Br)cc3)cc2F)CCC1	735
O=C(O)C1=C(C(=O)Nc2ccc(-c3cccc(OC(F)(F)F)c3)c(Cl)c2)CCC1	20
COc1ccc(-c2cc(F)c(NC(=O)C3=C(C(=O)O)CCC3)c(F)c2)c(OC)c1	90
O=C(O)C1=C(C(=O)Nc2ccc(-c3cccc(O)c3)cc2F)CCC1	610
COc1ccccc1-c1c(F)c(F)c(NC(=O)C2=C(C(=O)O)CCC2)c(F)c1F	8
COc1ccc(-c2ccc(NC(=O)C3=C(C(=O)O)CCC3)c(F)c2)cc1	1700
O=C(O)C1=C(C(=O)Nc2ccc(-c3ccccc3)cc2)CCC1	410
O=C(O)C1=C(C(=O)Nc2ccc(-c3ccc(Br)cc3)c(Cl)c2)CCC1	70
O=C(O)C1=C(C(=O)Nc2ccc(-c3cccc4ccccc34)cc2C(F)(F)F)CCC1	180
CCOc1cccc(-c2cc(F)c(NC(=O)C3=C(C(=O)O)CCC3)c(F)c2)c1	17
COc1ccc(-c2ccc(NC(=O)C3=C(C(=O)O)CCC3)c(Cl)c2)cc1	8400
